According to a melting point compilation (Tetko et al.; mined from patent text by program, amines drawn as free bases though some values may be those of a salt):

Row | SMILES | melting point
1 | CNc1cc2c(c(C)c1F)c(=O)c(C(=O)O)cn2-c1cc(N)c(F)cc1F | > 270 °C
2 | Cn1c2ccccc2c(=O)c2c(-c3cccc(O)c3)c(Cl)cc(Cl)c21 | 220 to 222 °C
3 | CSC(=NC(=O)N(C)C)NC(=O)N(C)C | 116 to 118 °C
4 | CN(C)CCC1=Cc2ccc(NC(=O)c3ccc(-c4ccccc4)cc3)cc2CC1 | 148 to 150 °C
5 | CCn1cc(C(=O)O)c(=O)c2c(F)c(F)c(F)c(F)c21 | 229 to 230 °C
6 | CCn1ncc2c(NCC3CCCCC3)c3cc(S(C)=O)ccc3nc21 (centres undefined) | 186 to 187 °C
7 | O=C(/C=C/C=C/c1ccc(Cl)cc1)NCCCC(=O)NO | 164 to 166 °C
8 | COc1ccc(-c2nc3ccc(C(=O)O)cc3[nH]2)cc1C12CC3CC(CC(C3)C1)C2 | 358 to 359 °C
9 | O=C(CCc1ccc(Cl)cc1Cl)NC1N=C(C2CC2)c2ccccc2N(CC(F)(F)F)C1=O (single isomer, unassigned; (+)) | 64 to 66 °C
10 | CCCCCCCCCCCCCCCCCCNC(=O)Oc1ccc([N+](=O)[O-])cc1OC(=O)NCCCCCCCCCCCCCCCCCC | 117 to 121 °C
11 | CC1COCc2nc3c(N)nc4cc(CCC(=O)N(C)C)ccc4c3n21 (centres undefined) | 235 to 237 °C
12 | N#CNc1ccccc1-c1ccc(Cl)cc1 | 106 to 107 °C
13 | COCCOc1ccc(-c2cncc(C#N)c2Nc2ccc3[nH]ccc3c2C)cc1 | 208 to 210 °C
14 | CC(=O)SC(CC(=S)c1ccc(-c2ccccc2)cc1)C(=O)O (centres undefined) | 116 to 118 °C
15 | OCCCCC=CCCc1ccc(OCc2ccccc2)cc1 | 65 to 67 °C
16 | Cc1ccccc1CNC(=O)c1ccc2n1Cc1ccccc1N(C(=O)c1ccc(-c3ccccc3C)c(C)c1)C2 | 128 to 130 °C
17 | CC(Cc1ccc(O)cc1)NCC(O)c1cccc(Cl)c1 (centres undefined) | 50 to 55 °C
18 | COc1cn(-c2ccc(O)cc2F)nc(-c2ccnn2-c2ccccc2)c1=O | 223 to 224 °C
19 | COc1cc(Cn2cc(CCC(=O)O)c(-c3ccccc3)c2)cc(OCc2csc(-c3cnccn3)n2)c1 | 111 to 112 °C
20 | O=C(NC1CCN(CCCc2ccccc2)CC1)C1=Cc2cnc3cccc(n23)S1 | 190 to 191 °C
21 | COC(=O)C(O)(c1ccc(OC)cc1)c1ccc(OC)cc1 | 110 °C
22 | O=C(Cn1ccnc1[N+](=O)[O-])NCCO | 164 to 165 °C
23 | COC1CC=C(c2ccc(C(C)=O)cc2)CC1 (centres undefined) | 40 to 42 °C
24 | O=C1NC(C(=O)O)CCCCCCCCCCC1CS (centres undefined) | 170 to 172 °C
25 | CCc1nc(C)n(COCc2ccccc2)c1Sc1ccccc1 | 156 to 159 °C

Row | SMILES | melting point
26 | CCN1C(=O)C(C)(C)C(=O)N(C)c2cc(CN(CCn3cc(C)c4occc4c3=O)Cc3ncccc3N)ccc21 | 188 to 192 °C
27 | O=C(O)CNC(=O)NC(CSC(=O)Nc1ccccc1)Cc1ccccc1 (centres undefined) | 179 to 181 °C
28 | CC1=C(C(=O)CS(=O)(=O)NC(C)C)C(c2cccc([N+](=O)[O-])c2)C(C(=O)OCCO)=C(C)N1 (centres undefined) | 185 to 188 °C
29 | Cc1[nH]cnc1/C=C/C(=O)c1cc2ccccc2n1C | 222 to 224 °C
30 | CC(C)Oc1cc(/C=C/S(=O)(=O)NC(=O)OC(C)(C)C)n(Cc2ccc(Cl)cc2Cl)n1 | 152 to 153 °C
31 | Cc1ccc(OCc2ccccc2)c(C(=O)O)c1C(=O)O | 200 to 203 °C
32 | Cc1cn(-c2cccc(N)c2)cn1 | 117 to 119 °C
33 | Nc1nc(Cl)nc2c1ncn2C1OC(CO)C(O)C1F (centres undefined) | 225 to 226 °C
34 | Nc1nc2c(ncn2C2CCC(CO)O2)c(=O)[nH]1 (centres undefined) | > 250 °C
35 | CCC(CC)C(NS(=O)(=O)c1ccc(C#N)cc1)c1ccnn1-c1ccccc1 (centres undefined) | 135 to 137 °C
36 | CN(C)C1(c2ccccc2)CC=C(c2c[nH]c3ccccc23)CC1 (centres undefined) | 164 to 172 °C
37 | COC(=O)C(C)(C)OCc1cc2cc(Cl)ccc2n1S(=O)(=O)c1ccc2c(c1)OCO2 | 90 to 92 °C
38 | O=C1C(CCC(O)c2ccc(F)cc2)C(c2ccc(-c3cccc(O)c3)cc2)N1c1ccc(F)cc1 (centres undefined) | 107 °C
39 | O=C(C=C1CCN(CCc2ccc(F)cc2)CC1)NCc1ccc(F)c(F)c1 | 117 to 120 °C
40 | O=C(O)c1ccc2c(c1)Sc1ccc(F)cc1C(=O)C2 | 289 to 291 °C
41 | CCOC(=O)c1ccc2c(SC(=O)N(C)C)cccn2c1=O | 119 to 121 °C
42 | Cn1cnc2c1C(=O)N1CCN=C1N2Cc1ccc(Cl)cc1 | 182 to 184 °C
43 | O=C1Nc2cc(Cl)cc(Cl)c2C1=O | 228 to 230 °C
44 | COC(=O)C(C)=Cc1cc(N)ccc1Cl | 80 °C
45 | CC(C)(C)c1cc(-c2csc(CNC(=O)c3ccccc3)n2)cc(C(C)(C)C)c1O | 200 to 201 °C
46 | COC(=O)N1CCC(=O)C(C2(NO)OCCO2)C1 (centres undefined) | 162 to 165 °C
47 | Cc1cccc(C)c1-n1cc(C#N)c(=O)[nH]c1=O | 267 to 269 °C
48 | Cc1cc(Oc2ccc(NC(=O)Nc3ccc(N(CCCl)CCCl)cc3)cc2)c2cc3c(cc2n1)OCO3 | 217 to 218 °C
49 | O=C1CC(C(=O)O)CC(O)=C1N=Nc1ccccc1 (centres undefined) | 218 °C
